Where a name gives a salt, the structure may show the parent alone.
Key:
human MCHR1 = molecular target: T1, human MCHR1 (Homo sapiens, UniProt Q99705); experiment: MCH receptor 1 antagonistic activity, Ca2+ mobilization assay; type: cell-based; conditions: CHO, test compound 0.1 μM; human MCHR1-expressing CHO cells (clone #4); ligand MCH(4-19) 2 nM; read-out: Inhibitory rate % (0.1 μM)
T1 construct: expressed in transfected cells; host or cells: CHO dhfr- cells, clone #4
Summary of the method: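 CHO dhfr− cells stably expressing human MCHR1 (clone #4) were used in a fluorometric Ca2+ mobilization assay. Test compounds were run at 0.1 μM, with antagonism expressed as percent inhibition.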

[1] = molecular target: T2, human MCH receptor 1 (MCHR1) (Homo sapiens, UniProt Q99705); experiment: human MCH receptor 1 (MCHR1) competitive binding assay with [125I]-MCH(4-19); conditions: test compound 0.1 μM, human MCHR1-expressing CHO cell membrane fraction, read-out: Binding inhibition rate % (0.1 μM)
T2 construct: expressed in transfected cells; host or cells: CHO cell clone 57 (membrane fraction)
T2 sequence (Q99705 whole entry): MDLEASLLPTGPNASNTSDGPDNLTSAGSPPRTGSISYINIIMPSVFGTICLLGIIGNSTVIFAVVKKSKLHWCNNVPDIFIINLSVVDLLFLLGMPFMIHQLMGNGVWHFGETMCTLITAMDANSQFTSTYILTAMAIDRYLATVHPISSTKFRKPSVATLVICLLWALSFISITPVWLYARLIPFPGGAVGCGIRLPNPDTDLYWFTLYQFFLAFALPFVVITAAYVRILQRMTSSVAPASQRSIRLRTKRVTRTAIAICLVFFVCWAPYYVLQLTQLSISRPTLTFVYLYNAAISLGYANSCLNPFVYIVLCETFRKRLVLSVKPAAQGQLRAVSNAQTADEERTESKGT
Summary of the method: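 Membranes from CHO cells expressing human MCHR1 incubated with [125I]-MCH(4-19) and test compound in 20 mM Tris-HCl pH 7.5/5 mM EDTA with protease inhibitors, 1 hr at room temperature. Bound radioactivity collected on PEI-treated GF/C filters; % inhibition at 0.1 μM compound, nonspecific binding set with cold MCH(1-19).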

[2] = tested on: male diet-induced obese F344/Jcl rats; experiment: Anorectic effect in male diet-induced obese F344/Jcl rats; type: in vivo, rat; conditions: 5 mg/mL suspension at 2 mL/kg, two administrations, food intake for 2 days vs control group; for inhibition in vivo at 5000 µg/mL, 10 mg/kg: Rattus norvegicus, po, 48 h, read-out: Food intake suppression rate (%)
Method: Evaluation of Anorectic Effect Using Male Diet-Induced Obese F344/Jcl Rats
Male diet-induced obese F344/Jcl rats (44-50 weeks old) fed with a high-fat diet (D12451: Research Diets) from 5 weeks old were used. From before the start of experiment, the rats were singly housed, given a powder high-fat diet (D12451M: Research Diets), and habituated to oral administration with tap water. The food intake from the evening of the day before the start of experiment to the next morning was measured, and the rats were grouped based on both the food intake and the body weight of the previous day. In the evening of the day of the start of experiment and the next day, 0.5% methylcellulose solution was orally administered to the control group, and 0.5% methylcellulose suspension (5 mg/mL) of the test compound was orally administered to the compound administration group at 2 mL/kg (6 per group for both control group and compound administration group). The food intake for 2 days from the initial administration was measured. The food intake inhibition rate of each compound administration group to the control group was calculated.

HepG2 cells = experiment: PLsis (phospholipidosis) inducing potential, NBD-PE uptake; type: cell-based; conditions: 24 hr exposure, relative value to 10 μM Amiodarone, maximum value per unit concentration
Method: Evaluation of PLsis Inducing Potential
DMEM medium, L-glutamine, penicillin-streptomycin, pyruvic acid, and N-(7-nitrobenz-2-oxa-1,3-diazol-4-yl)-1,2-hexadecanoyl-sn-glycero-3-phosphoethanolamine triethylammonium salt (NBD-PE) were purchased from Invitrogen Corporation. As bovine serum albumin (BSA), a product of Thermo Trace Ltd. (Melbourne, Australia) was used, and as Amiodarone, a product of ICN (Costa Mesa, Calif.) was used. A test compound was used in the form of a 10 mM DMSO solution.
FBS was added at a final concentration of 5 vol % to DMEM medium supplemented with L-glutamine, pyruvic acid and penicillin-streptomycin and subjected to the experiment. Culture was performed using 5% carbon dioxide gas-95% air as a gas phase in a CO2 incubator at 37° C. HepG2 cells were suspended in a culture medium at 50×10^4 cells/mL, plated in a 96 well plate at 50 μL/well and precultured for 24 hr. After preculture, the culture medium was removed, a culture medium containing 60 μM NBD-PE was added at 50 μL/well, and a culture medium containing 0.6 μM or 20 μM test compounds were each added at 50 μL/well to HepG2 cells, and the cells were cultured for 24 hr. As a positive control, Amiodarone was used at a final concentration of 10 μM.
After exposure to the test compound for 24 hr, the fluorescence intensity (Ex. 485 nm, Em. 538 nm) of NBD-PE uptaken by the cells was measured by a fluorometer. The measurement value with addition of 0 μM test compound solution was subtracted as a blank, a relative value to the measurement 5 value with addition of 10 μM Amiodarone was calculated, and the maximum value per unit concentration of the test compound was obtained as a phospholipidosis (PLsis) inducing potential.

T1 sequence (Q99705 whole entry): as above

Cn1c(C2CC2)nc2ccc(-n3ccc(OCc4ccc(Cl)cc4)cc3=O)cc21 [Example 10, 4-((4-Chlorobenzyl)oxy)-1-(2-cyclopropyl-1-methyl-1H-benzimidazol-6-yl)pyridin-2(1H)-one]
inhibition at 0.1 µM (human MCHR1): 99% | inhibition at 0.1 µM [1]: 89% | inhibition in vivo at 5000 µg/mL, 10 mg/kg [2]: 58.1%

CCc1nc2ccc(-n3ccc(OCc4csc(Cl)c4)cc3=O)cc2n1C [Example 51, 4-[(5-Chlorothiophen-3-yl)methoxy]-1-(2-ethyl-1-methyl-1H-benzimidazol-6-yl)pyridin-2(1H)-one]
inhibition in vivo at 5000 µg/mL, 10 mg/kg [2]: 50%

Cc1c(C2CC2)nc2ccc(-n3ccc(OCc4ccc(C(F)(F)F)s4)cc3=O)cn12 [Example 160, 1-(2-Cyclopropyl-3-methylimidazo[1,2-a]pyridin-6-yl)-4-((5-(trifluoromethyl)thiophen-2-yl)methoxy)pyridin-2(1H)-one hydrochloride]
Food intake suppression rate (%) ([2]; oral, hydrochloride): 22.7%

Cn1c(C2CC2)nc2ccc(-n3ccc(OCc4ccc(C(F)(F)F)s4)cc3=O)cc21 [Example 242, 1-(2-Cyclopropyl-1-methyl-1H-benzimidazol-6-yl)-4-((5-(trifluoromethyl)-2-thienyl)methoxy)pyridin-2(1H)-one hydrochloride]
inhibition in vivo at 5000 µg/mL, 10 mg/kg [2]: 17.4%

Cn1c(C2CC2)nc2ccc(-n3ccc(OCc4cc(C(F)(F)F)cs4)cc3=O)cc21 [Example 275, 1-(2-Cyclopropyl-1-methyl-1H-benzimidazol-6-yl)-4-((4-(trifluoromethyl)-2-thienyl)methoxy)pyridin-2(1H)-one]
inhibition at 0.1 µM (human MCHR1): 89% | inhibition at 0.1 µM [1]: 75% | inhibition in vivo at 5000 µg/mL, 10 mg/kg [2]: 50.1%

CCc1nc2ccc(-n3ccc(OCc4ccc(Cl)s4)cc3=O)cc2n1C [Example 49, 4-[(5-Chlorothiophen-2-yl)methoxy]-1-(2-ethyl-1-methyl-1H-benzimidazol-6-yl)pyridin-2(1H)-one]
inhibition in vivo at 5000 µg/mL, 10 mg/kg [2]: 29.3%

Cc1c(C2CC2)nc2ccc(-n3ccc(OCc4ccc(F)s4)cc3=O)cn12 [Example 156, 1-(2-Cyclopropyl-3-methylimidazo[1,2-a]pyridin-6-yl)-4-((5-fluorothiophen-2-yl)methoxy)pyridin-2(1H)-one]
PLsis inducing potential (HepG2 cells): 2.0 | inhibition at 0.1 µM (human MCHR1): 90% | inhibition at 0.1 µM [1]: 48%

Cn1c(C2CC2)nc2ccc(-n3ccc(OCc4ccccc4)cc3=O)cc21 [Example 9, 4-(Benzyloxy)-1-(2-cyclopropyl-1-methyl-1H-benzimidazol-6-yl)pyridin-2(1H)-one]
inhibition at 0.1 µM (human MCHR1): 100% | inhibition at 0.1 µM [1]: 72% | inhibition in vivo at 5000 µg/mL, 10 mg/kg [2]: 14.8%

Cc1nc2ccc(-n3ccc(OCc4csc(C(F)(F)F)c4)cc3=O)cc2n1C [Example 290, 1-(1,2-Dimethyl-1H-benzimidazol-6-yl)-4-((5-(trifluoromethyl)thiophen-3-yl)methoxy)pyridin-2(1H)-one]
inhibition at 0.1 µM (human MCHR1): 90% | inhibition at 0.1 µM [1]: 77% | inhibition in vivo at 5000 µg/mL, 10 mg/kg [2]: 43.5%

Cn1c(CC2CC2)nc2ccc(-n3ccc(OCc4ccc(F)cc4)cc3=O)cc21 [Example 15, 1-(2-(Cyclopropylmethyl)-1-methyl-1H-benzimidazol-6-yl)-4-((4-fluorobenzyl)oxy)pyridin-2(1H)-one]
inhibition at 0.1 µM (human MCHR1): 90% | inhibition at 0.1 µM [1]: 53% | inhibition in vivo at 5000 µg/mL, 10 mg/kg [2]: 45.4%

CCc1nc2ccc(-n3ccc(OCc4csc(Cl)c4)cc3=O)cc2n1C [Example 226, 4-((5-Chloro-3-thienyl)methoxy)-1-(2-ethyl-1-methyl-1H-benzimidazol-6-yl)pyridin-2(1H)-one]
PLsis inducing potential (HepG2 cells): 2.1 | inhibition at 0.1 µM (human MCHR1): 106% | inhibition at 0.1 µM [1]: 89%

Cn1c(C2CC2)nc2ccc(-n3ccc(OCc4csc(C(F)(F)F)c4)cc3=O)cc21 [Example 252, 1-(2-Cyclopropyl-1-methyl-1H-benzimidazol-6-yl)-4-((5-(trifluoromethyl)-3-thienyl)methoxy)pyridin-2(1H)-one]
inhibition at 0.1 µM (human MCHR1): 85% | inhibition at 0.1 µM [1]: 66% | inhibition in vivo at 5000 µg/mL, 10 mg/kg [2]: 30.8%

Cn1c(C2CC2)nc2ccc(-n3ccc(OCc4csc(C(F)(F)F)n4)cc3=O)cc21 [Example 266, 1-(2-Cyclopropyl-1-methyl-1H-benzimidazol-6-yl)-4-((2-(trifluoromethyl)-1,3-thiazol-4-yl)methoxy)pyridin-2(1H)-one]
inhibition at 0.1 µM (human MCHR1): 73% | inhibition at 0.1 µM [1]: 50% | inhibition in vivo at 5000 µg/mL, 10 mg/kg [2]: 20%

Cn1c(C2CC2)nc2ccc(-n3ccc(OCc4csc(Cl)c4)cc3=O)cc21 [Example 143, 4-((5-Chloro-3-thienyl)methoxy)-1-(2-cyclopropyl-1-methyl-1H-benzimidazol-6-yl)pyridin-2(1H)-one]
PLsis inducing potential (HepG2 cells): 1.6 | inhibition at 0.1 µM [1]: 91% | inhibition in vivo at 5000 µg/mL, 10 mg/kg [2]: 39.4%

CCc1nc2ccc(-n3ccc(OCc4cc(C(F)(F)F)cs4)cc3=O)cc2n1C [Example 276, 1-(2-Ethyl-1-methyl-1H-benzimidazol-6-yl)-4-((4-(trifluoromethyl)-2-thienyl)methoxy)pyridin-2(1H)-one]
inhibition at 0.1 µM (human MCHR1): 97% | inhibition at 0.1 µM [1]: 71% | inhibition in vivo at 5000 µg/mL, 10 mg/kg [2]: 57.9%

Cc1c(C2CC2)nc2ccc(-n3ccc(OCc4ccc(C(F)(F)F)s4)cc3=O)cn12 [Example 158, 1-(2-Cyclopropyl-3-methylimidazo[1,2-a]pyridin-6-yl)-4-((5-(trifluoromethyl)thiophen-2-yl)methoxy)pyridin-2(1H)-one]
inhibition at 0.1 µM (human MCHR1): 105% | inhibition at 0.1 µM [1]: 83% | inhibition in vivo at 5000 µg/mL, 10 mg/kg [2]: 20.3%

Cn1c(C2CC2)nc2ccc(-n3ccc([C@@H]4C[C@H]4c4ccc(Cl)cc4)cc3=O)cc21 (racemic) [Example 253, 4-((1RS,2RS)-2-(4-chlorophenyl)cyclopropyl)-1-(2-cyclopropyl-1-methyl-1H-benzimidazol-6-yl)pyridin-2(1H)-one]
inhibition at 0.1 µM (human MCHR1): 69% | inhibition at 0.1 µM [1]: 64%

CCc1nc2ccc(-n3ccc(OCc4nc(C(F)(F)F)cs4)cc3=O)cc2n1C [Example 261, 1-(2-Ethyl-1-methyl-1H-benzimidazol-6-yl)-4-((4-(trifluoromethyl)-1,3-thiazol-2-yl)methoxy)pyridin-2(1H)-one]
inhibition at 0.1 µM (human MCHR1): 100% | inhibition at 0.1 µM [1]: 57%

Cn1c(C2CC2)nc2ccc(-n3ccc(OCc4ccc(Cl)c(F)c4)cc3=O)cc21 [Example 131, 4-((4-Chloro-3-fluorobenzyl)oxy)-1-(2-cyclopropyl-1-methyl-1H-benzimidazol-6-yl)pyridin-2(1H)-one]
inhibition at 0.1 µM [1]: 78% | inhibition in vivo at 5000 µg/mL, 10 mg/kg [2]: 44.3%

Cc1c(C2CC2)nc2ccc(-n3ncc(OCc4ccc(Cl)cc4)cc3=O)cn12 [Example 55, 5-((4-Chlorobenzyl)oxy)-2-(2-cyclopropyl-3-methylimidazo[1,2-a]pyridin-6-yl)pyridazin-3(2H)-one]
inhibition at 0.1 µM (human MCHR1): 78% | inhibition at 0.1 µM [1]: 53%

Cn1c(C2CC2)nc2ccc(-n3ccc(OCc4csc(C(F)F)n4)cc3=O)cc21 [Example 287, 1-(2-Cyclopropyl-1-methyl-1H-benzimidazol-6-yl)-4-((2-(difluoromethyl)-1,3-thiazol-4-yl)methoxy)pyridin-2(^1H)-one]
inhibition at 0.1 µM (human MCHR1): 95% | inhibition at 0.1 µM [1]: 47%

Reference: patent US9365540B2, “Benzimidazole derivatives as MCH receptor antagonists” (Takeda Pharmaceutical Company Limited, priority 2012, dated 2016)
